According to US4975538A, “Antibiotic sulfonylaminocarbonyl activated beta-lactams” (The Upjohn Company, priority 1989, dated 1990):
Values after ≈ are worked out from the molar mass of the structure shown.

Assays:
Test in all cases: Minimum Inhibitory Concentration (MIC), agar dilution in Mueller Hinton Agar
Assay type in all cases: cell-based
Escherichia Coli = conditions: 20 h
Experimental: (§1) The compounds of this invention and their respective pharmaceutically acceptable salts have antibiotic activity against a variety of gram-negative bacteria including Escherichia coli, Klebsiella pneumoniae, and Pseudomonas aeruginosa. The compounds are useful for treating bacterial infections in animals, including and most preferably humans. Compounds of the invention are tested for in vitro antimicrobial activity using standard testing procedures such as the determination of minimum inhibitory concentration (MIC) by methods described in "Methods for Dilution Antimicrobial Susceptibility Tests for Bacteria That Grow Aerobically" (M7-A) Published December 1985 by the National Committee for Clinical Laboratory Standards, 771 East Lancaster Avenue, Villanova, Pa. 19084. Briefly, MIC values are determined in unsupplemented Mueller Hinton Agar (MHA). The compounds tested are diluted serially into molten MHA at 47° C. The agar is poured into petri dishes and allowed to harden. The various bacteria used for testing are grown overnight on MHA at 35° C. and transferred to Tryptiease Soy Broth (TSB) until a turbidity of 0.5 McFarland standard is obtained. The bacteria are diluted one to twenty in TSB and inoculated on the plates (1 μl using a Steers replicator).

Streptococcus Faecalis = conditions: Enterococcus faecalis, 20 h; culture number 694
Experimental: as §1

Streptococcus Pyogenes = conditions: 20 h, culture number 152
Experimental: as §1

Serratia Marcescens = conditions: 20 h, culture number 6888
Experimental: as §1

Pseudomonas Aeruginosa = conditions: 20 h
Experimental: as §1

Citrobacter Freundli = conditions: 20 h, culture number 3507
Experimental: as §1

Proteus Vulgaris = conditions: 20 h, culture number 9679
Experimental: as §1

Klebsiella Pneumoniae = conditions: 20 h, culture number 58
Experimental: as §1

Klebsiella Oxytoca = conditions: 20 h
Experimental: as §1

[1] = tested on: Staphylococcus epidermidis; conditions: 20 h, culture number 30031
Experimental: as §1

Staphylococcus Aureus = conditions: 20 h
Experimental: as §1

Streptococcus Pneumoniae = conditions: 20 h, culture number 41
Experimental: as §1

Enterobacter Cloacae = conditions: 20 h
Experimental: as §1

Row | SMILES | MIC (Escherichia Coli; culture number 9379) | MIC (Escherichia Coli; culture number 9380) | MIC (Escherichia Coli; culture number 9451) | MIC (Streptococcus Faecalis) | MIC (Streptococcus Pyogenes) | MIC (Serratia Marcescens) | MIC (Pseudomonas Aeruginosa; culture number 231) | MIC (Pseudomonas Aeruginosa; culture number 9191) | MIC (Citrobacter Freundli) | MIC (Proteus Vulgaris) | MIC (Klebsiella Pneumoniae) | MIC (Klebsiella Oxytoca; culture number 9383) | MIC (Klebsiella Oxytoca; culture number 9384) | MIC (Staphylococcus Aureus; culture number 3665) | MIC (Staphylococcus Aureus; culture number 6685) | MIC (Staphylococcus Aureus; culture number 9218) | MIC (Streptococcus Pneumoniae) | MIC (Enterobacter Cloacae; culture number 9381) | MIC (Enterobacter Cloacae; culture number 9382) | also measured
1 | Nc1nc(/C(=N/OCC(=O)O)C(=O)N[C@H]2CN(C(=O)NS(=O)(=O)N3CCN(NC(=O)c4[nH]ccc(=O)c4O)C3=O)C2=O)cs1 [Compound E40, Acetic acid, [[[1-(2-amino-4-thiazolyl)-2-[[1-[[[[3-[[(1,4-dihydro-3-hydroxy-4-oxo-2-pyridinyl)carbonyl]amino]-2-oxo-1-imidazolidinyl]sulfonyl]-amino]carbonyl]-2-oxo-3-azetidinyl]amino]-2-oxoethylidene]amino]oxy]-, [S-(Z)]-] | 0.5 µg/mL (≈ 0.762 µM) | 1 µg/mL (≈ 1.52 µM) | 0.5 µg/mL (≈ 0.762 µM) | > 64 µg/mL | 64 µg/mL (≈ 97.5 µM) | 2 µg/mL (≈ 3.05 µM) | 64 µg/mL (≈ 97.5 µM) | 64 µg/mL (≈ 97.5 µM) | 0.25 µg/mL (≈ 0.381 µM) | 0.25 µg/mL (≈ 0.381 µM) | 0.5 µg/mL (≈ 0.762 µM) | 2 µg/mL (≈ 3.05 µM) | 0.5 µg/mL (≈ 0.762 µM) | > 64 µg/mL | > 64 µg/mL | > 64 µg/mL | > 64 µg/mL | 64 µg/mL (≈ 97.5 µM) | 1 µg/mL (≈ 1.52 µM) | MIC [1]: > 64 µg/mL; MIC (Staphylococcus Aureus; culture number 9213): > 64 µg/mL
2 | CC(C)(O/N=C(\C(=O)N[C@H]1CN(C(=O)NS(=O)(=O)N2CCN(C(=O)c3cc(=O)c(O)c[nH]3)NC2=O)C1=O)c1csc(N)n1)C(=O)O [Compound E18, Propanoic acid, 2-[[[1-(2-amino-4-thiazolyl)-2-[[1-[[[[1-[(1,4-dihydro-5-hydroxy-4-oxo-2-pyridinyl)carbonyl]tetrahydro-3-oxo-1,2,4-triazin-4(1H)-yl]sulfonyl]amino]carbonyl]-2-oxo-3-azetidinyl]amino]-2-oxoethylidene]amino]oxy]-2-methyl-[S-(Z)]-] | < 0.008 µg/mL | < 0.008 µg/mL | < 0.008 µg/mL | > 64 µg/mL | 16 µg/mL (≈ 23.4 µM) | 0.06 µg/mL (≈ 0.0876 µM) | 0.25 µg/mL (≈ 0.365 µM) | 0.125 µg/mL (≈ 0.183 µM) | 0.06 µg/mL (≈ 0.0876 µM) | 0.06 µg/mL (≈ 0.0876 µM) | 0.5 µg/mL (≈ 0.73 µM) | 0.125 µg/mL (≈ 0.183 µM) | 0.03 µg/mL (≈ 0.0438 µM) | > 64 µg/mL | > 64 µg/mL | > 64 µg/mL | > 64 µg/mL | 16 µg/mL (≈ 23.4 µM) | 1 µg/mL (≈ 1.46 µM) | 
3 | Nc1nc(/C(=N/OCC(=O)O)C(=O)N[C@H]2CN(C(=O)NS(=O)(=O)N3CCN(C(=O)c4cc(=O)c(O)c[nH]4)CC3)C2=O)cs1 [Compound E19, Acetic acid, 2-[[[1-(2-amino-4-thiazolyl)-2-[[1-[[[[4-[(1,4-dihydro-5-hydroxy-4-oxo-2-pyridinyl)carbonyl]-1-piperazinyl]sulfonyl]amino]carbonyl]-2-oxo-3-azetidinyl]amino]-2-oxoethylidene]amino]oxy]-, [S-(Z)]-] | 0.25 µg/mL (≈ 0.39 µM) | 0.06 µg/mL (≈ 0.0935 µM) | 0.125 µg/mL (≈ 0.195 µM) | > 128 µg/mL | 64 µg/mL (≈ 99.8 µM) | 1 µg/mL (≈ 1.56 µM) | 8 µg/mL (≈ 12.5 µM) | 8 µg/mL (≈ 12.5 µM) | 2 µg/mL (≈ 3.12 µM) | 4 µg/mL (≈ 6.23 µM) | 8 µg/mL (≈ 12.5 µM) | 64 µg/mL (≈ 99.8 µM) | 0.5 µg/mL (≈ 0.779 µM) | > 128 µg/mL | > 128 µg/mL | > 128 µg/mL | > 128 µg/mL | 128 µg/mL (≈ 200 µM) | 16 µg/mL (≈ 24.9 µM) | 
